Laboratory results as given in article PMC4588179, “Antifungal Activity of 14-Helical β-Peptides against Planktonic Cells and Biofilms of Candida Species” (Pharmaceuticals, 2015).
Converted amounts (≈) assume the structure as drawn.

Assays:
[1] = RP-HPLC retention time as measure of β-peptide hydrophobicity; type: physicochemical; details: chromatographic, analytical RP-HPLC, C18 (Waters X-bridge, 4.6 mm × 250 mm), gradient 20%–80% CH3CN in water with 0.1% TFA over 5–35 min, 1 mL/minute, 0.5 to 1 mg/mL, 50 µL injected; mean ± standard deviation of triplicate measurements
Description: β-peptides were produced by microwave-assisted Fmoc synthesis at 20−40 μmol scales and purified by RP-HPLC using a C18 column. MALDI mass spectrometry was used to validate the mass of each peptide as described previously. Retention times determined by C18 RP-HPLC were used as a measure of the relative hydrophobicity of the β-peptides (Table 1). This approach has been used previously by our group and others to assess the relative hydrophobicity of different peptide structures. Preliminary antifungal activity and mammalian toxicity evaluation were reported previously for β-peptides 1–16 as planktonic MIC against C. albicans and percent hemolysis at the MIC, respectively.
Hydrophobicity of 14-helical β-peptides was characterized by measuring retention times with an analytical RP-HPLC using a C18 column (Waters, X-bridge, column dimensions 4.6 mm × 250 mm, Milford, MA, USA). The β-peptide solutions (0.5 to 1 mg/mL, 50 µL) were injected into the HPLC at a flow rate of 1 mL/minute. Retention time was characterized in triplicate with a gradient of 20%–80% CH3CN in water containing 0.1% TFA over 5–35 min.

C. glabrata 5376 = test: Planktonic antifungal susceptibility (modified CLSI, XTT end point); type: cell-based, Candida glabrata; details: 10^3 cells/mL, RPMI, 35 °C, 48 h, XTT (A490), <10% metabolic activity, at least two independent days, three replicates each
Protocol: (§1) C. albicans strains SC5314 and ATCC 90028 were purchased from ATCC. C. albicans K1, C. glabrata 5376, C. parapsilosis 5986 and C. tropicalis 98-234 are clinical isolates from invasive candidiasis and were generously donated by the Andes group (University of Wisconsin-Madison). K1 is fluconazole resistant. All strains were stored as a 50% glycerol stock at −80 °C and grown in a liquid YPD media. For planktonic susceptibility testing, cells were grown on agar plates at 30 °C for 24 h and 2–3 colonies were used for the cell inoculum. For spheroplast formation and biofilm susceptibility testing assays, cells were grown overnight in YPD at 30 °C. RPMI (with L-glutamine and phenol red buffered with 3-(N-morpholino) propanesulfonic acid and adjusted to pH 7.0) was the media used for all susceptibility tests. XTT solution for assessing metabolic activity was prepared at 0.5 g/L in PBS with 3 μM menadione in acetone and pH adjusted to 7.4.
(§2) The antifungal activities of the β-peptides against C. albicans, C. glabrata, C. parapsilosis, C. tropicalis cells were assayed in accordance to the guidelines for planktonic susceptibility testing provided by the Clinical and Laboratory Standards Institute, but with a modification to include a quantitative XTT cell metabolic activity end-point. […] After 48 h, the MICs were recorded visually as the first well that […] and by using an XTT metabolic assay. […]

C. parapsilosis 5986 = test: as above; type: cell-based, Candida parapsilosis; details: 10^3 cells/mL, RPMI, 35 °C, 48 h, XTT (A490), <10% metabolic activity, at least two independent days, three replicates each
Protocol: as §1, §2

C. tropicalis 98-234 = test: as above; type: cell-based, Candida tropicalis; details: 10^3 cells/mL, RPMI, 35 °C, 48 h, XTT (A490), <10% metabolic activity, at least two independent days, three replicates each
Protocol: as §1, §2

[2] = system: human red blood cells (hRBCs); test: Hemolysis of human red blood cells; type: cell-based; details: hRBCs, 2-fold dilutions in tris-buffered saline, an hour at 37 °C, absorbance 405 nm, relative to positive lysis control; average ± standard deviation of three independent experiments of duplicates each
Protocol: Table S1. Hemolysis of β-peptide 1-16, concentration of β-peptid e needed for 50% lysis of human red blood cells (hRBCs)
Peptide # Peptide Concentration at 50% Hemolysis a (HC50, µg/mL) […]
a Hemolysis assays were perfor med as previously indicated in Lee, M.R. et al., ACS Chem. Biol. (2014). Briefly, equal volumes of 2-fold dilutions of β-peptides in tris-buffered saline (TBS) were incubated with hRBCs for an hour at 37 °C. Supernatants were transferred to a new plate and absorbance was measured at 405 nm.
% hemolysis was calculated relative to positive lysis control and the concentration of peptide needed for 50% hemolysis was recorded as HC50 for that peptide. Values reported are average measurements from three independent experiments of duplicates each and the error denoted is the standard deviation. Concentration dependent hemolysis graphs can be found in Lee, M.R. et al., ACS Chem. Biol. (2014).

CC(C)[C@@H](CC(=O)N[C@@H](CCCCN)CC(N)=O)NC(=O)[C@H]1CCCC[C@@H]1NC(=O)C[C@H](CCCCN)NC(=O)C[C@@H](NC(=O)[C@H]1CCCC[C@@H]1NC(=O)C[C@H](CCCCN)NC(=O)C[C@@H](NC(=O)[C@H]1CCCC[C@@H]1N)C(C)C)C(C)C [Peptide 4]
Hydrophobicity (HPLC Retention Time, min) [1]: 24.5 ± 0.2 min
MIC, C. glabrata (C. glabrata 5376): 32 µg/mL (≈ 27.6 µM)
MIC, C. parapsilosis (C. parapsilosis 5986): 16 µg/mL (≈ 13.8 µM)
MIC, C. tropicalis (C. tropicalis 98-234): 4 µg/mL (≈ 3.45 µM)
Peptide Concentration at 50% Hemolysis (HC50) [2]: 161 ± 40 µg/mL
